Experimental data taken from patent US8889704B2 (Array BioPharma Inc., priority 2011, dated 2014).
Counter-ions that a name gives are not always drawn.

What was measured:
Assay type in all cases: biochemical
[1] = molecular target: PIM-1 (Homo sapiens, UniProt P11309); assay: Enzyme PIM-1 Assay ([33P]ATP incorporation into PIM2tide, filter plate); details: averaged IC50; 35 μM ATP, 7.5 μM PIM2tide, 0.25 nM PIM-1, 60 min at 22° C.
How it was run: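 Radiometric assay: 0.25 nM PIM-1 phosphorylates 7.5 μM PIM2tide with 35 μM [γ-33P]ATP in 20 mM MOPS pH 7.4, 10 mM MgCl2, 1 mM DTT, 0.005% Tween-20, 60 min at 22 °C. Product captured on P81 filters, scintillation counted; 10-point 3-fold curve from 10 μM top, 2% DMSO, IC50 by 4-parameter logistic fit of POC.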

[2] = molecular target: recombinant rat PIM-3 (Rattus norvegicus, UniProt O70444); assay: PIM-3 Assay (as Example A); details: averaged IC50; 30 μM ATP, 3.75 μM PIM2tide, 0.5 nM PIM-3
How it was run: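 Recombinant rat PIM-3 (0.5 nM) with 3.75 μM PIM2tide and 30 μM [γ-33P]ATP in MOPS pH 7.4 buffer, 60 min at 22 °C; labelled peptide captured on phosphocellulose filters and counted by scintillation. 10-point curve (top dose 10 μM, 2% DMSO); IC50 from 4-parameter fit of percent of control.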

[3] = molecular target: T1, GST-tagged recombinant full-length human Pim-2 (Homo sapiens, UniProt Q9P1W9); assay: PIM-2 Assay (as Example A); details: averaged IC50; 4 μM ATP, 1.0 μM PIM2tide, 1.5 nM Pim-2
T1 construct: GST-tagged recombinant full-length human Pim-2; GST
T1 sequence (Q9P1W9 whole entry): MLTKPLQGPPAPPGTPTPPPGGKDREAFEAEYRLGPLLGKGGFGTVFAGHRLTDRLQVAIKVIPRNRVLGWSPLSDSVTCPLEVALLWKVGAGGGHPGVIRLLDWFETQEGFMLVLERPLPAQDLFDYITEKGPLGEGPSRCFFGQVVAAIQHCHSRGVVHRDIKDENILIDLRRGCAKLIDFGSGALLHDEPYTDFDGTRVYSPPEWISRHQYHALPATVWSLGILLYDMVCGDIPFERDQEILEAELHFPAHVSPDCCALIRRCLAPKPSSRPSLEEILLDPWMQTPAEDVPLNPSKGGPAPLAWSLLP
How it was run: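 Radiometric filter-binding assay: GST-tagged full-length human Pim-2 (1.5 nM) phosphorylates 1.0 μM PIM2tide with 4 μM [γ-33P]ATP for 60 min at 22 °C in pH 7.4 MOPS buffer, 2% DMSO. 10-point 3-fold dilutions from 10 μM top dose; IC50 from 4-parameter fit of percent of control.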

Chain of PIM-1 (P11309 whole entry, species assumed): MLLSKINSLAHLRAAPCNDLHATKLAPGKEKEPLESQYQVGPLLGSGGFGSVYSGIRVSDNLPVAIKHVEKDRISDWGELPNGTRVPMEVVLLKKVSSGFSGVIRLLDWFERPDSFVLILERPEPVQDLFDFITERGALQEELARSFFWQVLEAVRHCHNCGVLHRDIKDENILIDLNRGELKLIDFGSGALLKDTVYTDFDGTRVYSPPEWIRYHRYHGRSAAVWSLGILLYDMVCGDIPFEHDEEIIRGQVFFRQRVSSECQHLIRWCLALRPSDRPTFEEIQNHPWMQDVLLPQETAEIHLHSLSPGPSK

SMILES | IC50 [1] [nM] | IC50 [2] [nM] | IC50 [3] [nM]
COc1ccc2ccc(-c3nnc4ccc([C@H](N5CC[C@](C)(N)C5)C(F)(F)F)cn34)nc2c1 [Example 312, (S)-3-methyl-1-((S)-2,2,2-trifluoro-1-(3-(7-methoxyquinolin-2-yl)-[1,2,4]triazolo[4,3-a]pyridin-6-yl)ethyl)pyrrolidin-3-amine] | 0.24 | 0.8 | 170
CC(C)Oc1ccc2ccc(-c3nnc4ccc([C@H](N5CC[C@](C)(N)C5)C(F)(F)F)cn34)nc2c1 [Example 314, (S)-3-methyl-1-((S)-2,2,2-trifluoro-1-(3-(7-isopropoxyquinolin-2-yl)-[1,2,4]triazolo[4,3-a]pyridin-6-yl)ethyl)pyrrolidin-3-amine] | 0.22 | 0.4 | 18.4
N[C@H]1CCN([C@H](c2ccc3nnc(-c4ccc5ccc(C6COC6)cc5n4)n3c2)C(F)(F)F)C1 [Example 316, (S)-1-((R)-2,2,2-trifluoro-1-(3-(7-(oxetan-3-yl)quinolin-2-yl)-[1,2,4]triazolo[4,3-a]pyridin-6-yl)ethyl)pyrrolidin-3-amine] | 0.48 | 2.8 | 764
C[C@]1(N)CCN([C@@H](c2ccc3nnc(-c4ccc5ccc(CCO)cc5n4)n3c2)C(F)(F)F)C1 [Example 317, 2-(2-(6-((S)-1-((S)-3-amino-3-methylpyrrolidin-1-yl)-2,2,2-trifluoroethyl)-[1,2,4]triazolo[4,3-a]pyridin-3-yl)quinolin-7-yl)ethanol] | 0.34 | 0.4 | 194
COCCOc1ccc2ccc(-c3nnc4ccc([C@@H](N5C[C@@H](N)[C@H](OC)C5)C(F)(F)F)cn34)nc2c1 [Example 318, (3R,4R)-4-methoxy-1-((R)-2,2,2-trifluoro-1-(3-(7-(2-methoxyethoxy)quinolin-2-yl)-[1,2,4]triazolo[4,3-a]pyridin-6-yl)ethyl)pyrrolidin-3-amine] | 0.94 | 0.8 | 218
Cc1oc(=O)oc1COC(=O)N[C@H]1CCN([C@H](c2ccc3nnc(-c4ccc5cc(F)c(OCCO)cc5n4)n3c2)C(F)(F)F)C1 [Example 321, (5-methyl-2-oxo-1,3-dioxol-4-yl)methyl ((S)-1-((R)-2,2,2-trifluoro-1-(3-(6-fluoro-7-(2-hydroxyethoxy)quinolin-2-yl)-[1,2,4]triazolo[4,3-a]pyridin-6-yl)ethyl)pyrrolidin-3-yl)carbamate] | 1.68 | 6.1 | 1820
COCCOc1ccc2cc(F)c(-c3nnc4ccc([C@@H](N5CC[C@H](N)C5)C(F)(F)F)cn34)nc2c1 [Example 326, (S)-1-((R)-2,2,2-trifluoro-1-(3-(3-fluoro-7-(2-methoxyethoxy)quinolin-2-yl)-[1,2,4]triazolo[4,3-a]pyridin-6-yl)ethyl)pyrrolidin-3-amine] | 0.31 | 1.36 | 588
CO[C@H](C)COc1ccc2cc(F)c(-c3nnc4ccc([C@@H](N5CC[C@H](N)C5)C(F)(F)F)cn34)nc2c1 [Example 328, (S)-1-((R)-2,2,2-trifluoro-1-(3-(3-fluoro-7-((R)-2-methoxypropoxy)quinolin-2-yl)-[1,2,4]triazolo[4,3-a]pyridin-6-yl)ethyl)pyrrolidin-3-amine] | 0.33 | 1.39 | 748

Molecules with a lower IC50 [1], results first:

IC50 [1] [nM] | IC50 [2] [nM] | IC50 [3] [nM] | SMILES
0.19 | 0.4 | 25.7 | COC[C@@H](C)Oc1ccc2ccc(-c3nnc4ccc([C@H](N5CC[C@](C)(N)C5)C(F)(F)F)cn34)nc2c1 [Example 315, (S)-3-methyl-1-((S)-2,2,2-trifluoro-1-(3-(7-(((R)-1-methoxypropan-2-yl)oxy)quinolin-2-yl)-[1,2,4]triazolo[4,3-a]pyridin-6-yl)ethyl)pyrrolidin-3-amine]
0.18 | 0.21 | 44.6 | CO[C@H](C)COc1cc2nc(-c3nnc4ccc([C@H](N5CC[C@](C)(N)C5)C(F)(F)F)cn34)ccc2cc1F [Example 324, (S)-3-methyl-1-((S)-2,2,2-trifluoro-1-(3-(6-fluoro-7-((R)-2-methoxypropoxy)quinolin-2-yl)-[1,2,4]triazolo[4,3-a]pyridin-6-yl)ethyl)pyrrolidin-3-amine di-hydrochloride]
0.14 | 0.2 | 145 | CO[C@@H](C)COc1cc2nc(-c3nnc4ccc([C@@H](N5CC[C@H](N)C5)C(F)(F)F)cn34)ccc2cc1F [Example 323, (S)-1-((R)-2,2,2-trifluoro-1-(3-(6-fluoro-7-((S)-2-methoxypropoxy)quinolin-2-yl)-[1,2,4]triazolo[4,3-a]pyridin-6-yl)ethyl)pyrrolidin-3-amine di-hydrochloride]
0.08 | 0.1 | 22.7 | CO[C@@H](C)COc1cc2nc(-c3nnc4ccc([C@H](N5CC[C@](C)(N)C5)C(F)(F)F)cn34)ccc2cc1F [Example 322, (S)-3-methyl-1-((S)-2,2,2-trifluoro-1-(3-(6-fluoro-7-((S)-2-methoxypropoxy)quinolin-2-yl)-[1,2,4]triazolo[4,3-a]pyridin-6-yl)ethyl)pyrrolidin-3-amine di-hydrochloride]
0.06 | 0.13 | 102 | CO[C@H](C)COc1cc2nc(-c3nnc4ccc([C@@H](N5CC[C@H](N)C5)C(F)(F)F)cn34)ccc2cc1F [Example 325, (S)-1-((R)-2,2,2-trifluoro-1-(3-(6-fluoro-7-((R)-2-methoxypropoxy)quinolin-2-yl)-[1,2,4]triazolo[4,3-a]pyridin-6-yl)ethyl)pyrrolidin-3-amine di-hydrochloride]
